30 compounds from ChEMBL document CHEMBL3774377 (Bioorg Med Chem, 2016) can be followed below.

As usually defined, the IC50 is the concentration needed to halve the response being measured. As usually defined, the Ki is a dissociation constant, usually derived from enzyme kinetics or from competition with a known ligand.

The test system of experiment [1] is Sodium- and chloride-dependent GABA transporter 2 (Mus musculus). The experiment is described as follows: Inhibition of mouse GAT3 expressed in HEK293 cells assessed as remaining [3H]GABA uptake at 100 uM preincubated for 25 mins followed by [3H]GABA/unlabeled GABA addition measured after 4 mins by liquid scintillation counting analysis.
The target in experiment [2] is T1, Sodium- and chloride-dependent GABA transporter 1 (Mus musculus, UniProt P31648). The experiment is described as follows: Inhibition of mouse GAT1 expressed in HEK293 cells assessed as [3H]GABA uptake preincubated for 25 mins followed by [3H]GABA/unlabeled GABA addition measured after 4 mins by liquid scintillation counting analysis. Type of experiment: cell-based.

Experiment [3] deals with Sodium- and chloride-dependent GABA transporter 1 (Mus musculus) (UniProt P31648). The experiment is described as follows: Displacement of NO 711 from mouse GAT1 expressed in HEK293 cell membranes assessed as remaining marker bound to protein at 100 uM after 40 mins by LC-ESI-MS-MS-based MS binding assay.
Experiment [4] has as its target T2, GABA transporter 4 (Mus musculus) (UniProt P31650).
T2 sequence (whole entry): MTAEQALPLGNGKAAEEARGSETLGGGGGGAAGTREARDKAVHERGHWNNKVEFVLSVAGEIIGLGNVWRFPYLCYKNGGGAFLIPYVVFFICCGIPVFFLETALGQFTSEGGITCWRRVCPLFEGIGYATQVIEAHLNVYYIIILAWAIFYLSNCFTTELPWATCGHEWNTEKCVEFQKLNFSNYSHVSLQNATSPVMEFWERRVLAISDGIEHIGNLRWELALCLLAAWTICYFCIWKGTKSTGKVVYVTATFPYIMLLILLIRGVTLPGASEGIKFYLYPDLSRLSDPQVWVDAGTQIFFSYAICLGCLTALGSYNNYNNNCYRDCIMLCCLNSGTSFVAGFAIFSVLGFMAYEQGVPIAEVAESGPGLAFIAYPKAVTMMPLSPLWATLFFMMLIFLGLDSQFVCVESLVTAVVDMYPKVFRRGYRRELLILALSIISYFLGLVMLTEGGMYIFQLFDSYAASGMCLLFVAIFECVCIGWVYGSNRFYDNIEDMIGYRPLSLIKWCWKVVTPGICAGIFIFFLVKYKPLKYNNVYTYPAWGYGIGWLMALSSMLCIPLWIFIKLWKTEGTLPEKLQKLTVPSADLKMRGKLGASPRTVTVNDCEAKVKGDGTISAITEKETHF
The experiment is described as follows: Inhibition of mouse GAT4 expressed in HEK293 cells assessed as remaining [3H]GABA uptake at 100 uM preincubated for 25 mins followed by [3H]GABA/unlabeled GABA addition measured after 4 mins by liquid scintillation counting analysis. Type of experiment: cell-based.

The test system of experiment [5] is Sodium- and chloride-dependent betaine transporter (Mus musculus). The experiment is described as follows: Inhibition of mouse GAT2 expressed in HEK293 cells assessed as remaining [3H]GABA uptake at 100 uM preincubated for 25 mins followed by [3H]GABA/unlabeled GABA addition measured after 10 mins by liquid scintillation counting analysis.
The target of experiment [6] is Sodium- and chloride-dependent GABA transporter 1 (Mus musculus) (UniProt P31648). The experiment is described as follows: Inhibition of mouse GAT1 expressed in HEK293 cells assessed as remaining [3H]GABA uptake at 1 mM preincubated for 25 mins followed by [3H]GABA/unlabeled GABA addition measured after 4 mins by liquid scintillation counting analysis. Type of experiment: cell-based.

Experiment [7] has as its target T2, GABA transporter 4 (Mus musculus). The experiment is described as follows: Inhibition of mouse GAT4 expressed in HEK293 cells assessed as remaining [3H]GABA uptake at 1 mM preincubated for 25 mins followed by [3H]GABA/unlabeled GABA addition measured after 4 mins by liquid scintillation counting analysis. The format is cell-based.
Experiment [8] has as its target Sodium- and chloride-dependent GABA transporter 1 (Mus musculus) (UniProt P31648). The experiment is described as follows: Displacement of NO 711 from mouse GAT1 expressed in HEK293 cell membranes assessed as remaining marker bound to protein at 1 mM after 40 mins by LC-ESI-MS-MS-based MS binding assay.
Experiment [9] has the same target. The experiment is described as follows: Inhibition of mouse GAT1 expressed in HEK293 cells assessed as remaining [3H]GABA uptake at 100 uM preincubated for 25 mins followed by [3H]GABA/unlabeled GABA addition measured after 4 mins by liquid scintillation counting analysis. Type of experiment: cell-based.
The target in experiment [10] is T1, Sodium- and chloride-dependent GABA transporter 1. The experiment is described as follows: Displacement of NO 711 from mouse GAT1 expressed in HEK293 cell membranes after 40 mins by LC-ESI-MS-MS-based MS binding assay.
Another experiment has as its target T3, GABA transporter 4 (Mus musculus, UniProt P31650).
T3 sequence (P31650 whole entry): T2 sequence (whole entry)
The experiment is described as follows: Inhibition of mouse GAT4 expressed in HEK293 cells assessed as [3H]GABA uptake preincubated for 25 mins followed by [3H]GABA/unlabeled GABA addition measured after 4 mins by liquid scintillation counting analysis. The format is cell-based.

Experiment [11] has as its system Sodium- and chloride-dependent GABA transporter 2 (Mus musculus). The experiment is described as follows: Inhibition of mouse GAT3 expressed in HEK293 cells assessed as remaining [3H]GABA uptake at 1 mM preincubated for 25 mins followed by [3H]GABA/unlabeled GABA addition measured after 4 mins by liquid scintillation counting analysis.

For `O=C(O)[C@H]1CNCC[C@H]1CCC/C=C/c1ccccc1-c1ccccc1` (racemic), the Activity came to 54.5% in experiment [1], 45.9% in [3], 52.5% in [4] and 64.8% in [5]. Further, the IC50 in experiment [2] is 66.8 µM.
Consider `CCCC[C@H]1CCNC[C@@H]1C(=O)O` (racemic), for which the Activity came to 69.9% in experiment [6], 87.5% in experiment [7] and 91.7% in experiment [8].
Regarding `O=C(O)[C@H]1CNCC[C@@H]1CC/C=C/c1ccccc1Cc1ccccc1` (racemic), the Activity in [9] came to 86.3%; in [1] it was 78.1%; in [3], 79%; in experiment [4], 92.4%; in experiment [5], 85.1%.
Regarding `C=CCCCC[C@H]1CCNC[C@@H]1C(=O)O` (racemic), the Activity in [7] amounted to 89.9%. Further, the Ki in [10] is 818 µM. The IC50 in experiment [2] is 740 µM.
The compound `O=C(O)[C@H]1CNCC[C@@H]1CC/C=C/c1ccccc1-c1ccccc1` (racemic) had a Ki in experiment [10] of 33.2 µM. Besides, the results for the Activity in experiment [1], in experiment [4] and in experiment [5] were 53.5%, 84.7% and 88.7%, respectively. For the same compound, in [2], the IC50 was 60.5 µM.
As for `CN1CC[C@H](CC/C=C/c2ccccc2-c2ccccc2)[C@@H](C(=O)O)C1` (racemic), the Ki in [10] was 14.3 µM. For the same compound, the figures for the Activity in experiment [1], in [4] and in experiment [5] were 67.9%, 75.5% and 108%, respectively. For the same compound, in experiment [2], the IC50 was 26.5 µM.
Turning to `C#CCCC[C@H]1CCNC[C@@H]1C(=O)O` (racemic), the Activity in experiment [7] was found to be 84.9%; in [8], 87.2%. Further, the IC50 in experiment [2] was 1150 µM.
Regarding `O=C(O)[C@H]1CNCC[C@@H]1CCCC/C=C/c1ccccc1-c1ccccc1` (racemic), the IC50 was 83.6 µM on GABA transporter 4 and 75.5 µM in [2]. Besides, the Ki in experiment [10] was 71.8 µM. Further, the Activity in experiment [5] turned out to be 63.7%.
Take `O=C(O)[C@H]1CNCC[C@H]1CCCC#Cc1ccccc1Cc1ccccc1` (racemic): the figures for the IC50 (at GABA transporter 4; in experiment [2]) were 62.5 µM and 40.8 µM, respectively. For the same compound, the Ki in experiment [10] is 31 µM. Further, the Activity in experiment [5] is 51.1%.
`O=C(O)[C@H]1CNCC[C@H]1CC/C=C/c1ccccc1-c1ccccc1` (racemic): the Activity was 68.6% in experiment [9]; 55.3% in experiment [1]; 76.2% in experiment [3]; 63.5% in experiment [4]; 81.2% in experiment [5].
`CN1CC[C@H](CC/C=C/c2ccccc2Cc2ccccc2)[C@@H](C(=O)O)C1` (racemic) had a Ki in [10] of 39.8 µM. In [2], the IC50 is 36.7 µM.
Turning to `O=C(O)[C@H]1CNCC[C@@H]1CCC/C=C/c1ccccc1-c1ccccc1` (racemic), the Activity in [9] came out at 73.9%; in experiment [1], 75.7%; in [3], 86.6%; in experiment [4], 76.1%; in experiment [5] it was 98.3%.
The matching figures for `O=C(O)[C@H]1CNCC[C@H]1CCC#Cc1ccccc1Cc1ccccc1` (racemic): 70.1%, 53.9%, 82.7%, 63.9% and 68.4%.
In the same order, the values of `O=C(O)[C@H]1CNCC[C@H]1CCCC#Cc1ccccc1-c1ccccc1` (racemic) are 80%, 72.9%, 83.1%, 77.8% and 67.7%.
As to `CN1CC[C@H](CCC/C=C/c2ccccc2Cc2ccccc2)[C@@H](C(=O)O)C1` (racemic), in [10], the Ki was 39.9 µM. Also, the IC50 in experiment [2] is 24.7 µM. For the same compound, the Activity in experiment [4] stood at 45.7%.
As to `O=C(O)[C@H]1CNCC[C@H]1CCCC/C=C/c1ccccc1-c1ccccc1` (racemic), the IC50 at GABA transporter 4 is 36.7 µM; in [2] it was 24.5 µM. Moreover, in [10], the Ki is 27.4 µM.
For `C#CCC[C@H]1CCNC[C@@H]1C(=O)O` (racemic), the Activity in experiment [7] amounted to 90.4%; in [8] it was 88.9%.
With `O=C(O)C1CCCN(CCC=C(c2ccccc2)c2ccccc2)C1` (configuration not stated), the Ki in experiment [10] was 0.186 µM. This lies in the sub-micromolar range.
On to `O=C(O)[C@H]1CNCC[C@H]1CCC/C=C/c1ccccc1Cc1ccccc1` (racemic), for which the Ki in experiment [10] is 68.1 µM. For the same compound, the IC50 in experiment [2] was 64.1 µM.
As for `O=C(O)[C@H]1CNCC[C@@H]1CCCC/C=C/c1ccccc1Cc1ccccc1` (racemic), the Activity in [9] amounted to 60.5%; in experiment [3], 78.5%.
In turn, `O=C(O)[C@H]1CNCC[C@H]1CCCC/C=C/c1ccccc1Cc1ccccc1` (racemic) gave an inhibitory constant (Ki) in [10] of 35.4 µM.
`CN1CC[C@H](CCC#Cc2ccccc2Cc2ccccc2)[C@@H](C(=O)O)C1` (racemic): the Activity was determined as 60.9% in experiment [9]; 71% in [1]; 73.9% in experiment [3]; 84.4% in experiment [4]; 57.5% in experiment [5].
For `CN1CC[C@H](CCC#Cc2ccccc2-c2ccccc2)[C@@H](C(=O)O)C1` (racemic), the Activity in experiment [9] was determined as 79.8%; in [1], 81.9%; in [3], 86.5%; in experiment [4] it was 81.1%; in [5], 68.4%.
Turning to `CN1CC[C@H](CCC/C=C/c2ccccc2-c2ccccc2)[C@@H](C(=O)O)C1` (racemic), in experiment [10], the Ki is 72.4 µM. Moreover, the Activity in experiment [1] came out at 53.8%; in [4], 57.9%; in experiment [5], 90.8%. For the same compound, the IC50 in experiment [2] was 34.8 µM.
The compound `CN1CC[C@H](CCCC#Cc2ccccc2Cc2ccccc2)[C@@H](C(=O)O)C1` (racemic) had a Ki in [10] of 28.6 µM. Also, the IC50 in [2] is 25.9 µM. In addition, the Activity in experiment [4] was 50%.
With `O=C(O)[C@H]1CNCC[C@@H]1CCC/C=C/c1ccccc1Cc1ccccc1` (racemic), the affinity in [10] corresponds to a Ki of 77.1 µM. Besides, the half-maximal inhibitory concentration (IC50) in [2] was 107 µM.
Regarding `O=C(O)[C@H]1CNCC[C@H]1CC/C=C/c1ccccc1Cc1ccccc1` (racemic), the Activity in [9] amounted to 43.9%; in experiment [3], 79.6%; in [4], 49.7%; in experiment [5], 62.5%.
Regarding `O=C(O)[C@H]1CNCC[C@H]1CCC#Cc1ccccc1-c1ccccc1` (racemic), the Activity in experiment [9] was 60.4%; in experiment [1] it was 58.2%; in [3] it was 83.9%; in experiment [4], 86.9%; in experiment [5], 52%.
As for `C=CCC[C@H]1CCNC[C@@H]1C(=O)O` (racemic), the Activity turned out to be 63.6% in experiment [6]; 86.1% in experiment [7]; 73.1% in [11]; 79.9% in experiment [8]; 81.2% in experiment [5].
For `CN1CC[C@H](CCCC#Cc2ccccc2-c2ccccc2)[C@@H](C(=O)O)C1` (racemic), the Activity in experiment [1] was 56.4%; in experiment [3], 64.4%; in [4], 69.4%; in experiment [5] it was 51.9%. In experiment [2], the IC50 is 37.4 µM.
